Measured values from patent US7482459B2, “[4-(5-aminomethyl-2-fluoro-phenyl)-piperidin-1-yl]-(4-bromo-3-methyl-5-propoxy-thiophen-2-yl)-methanone hydrochloride as an inhibitor of mast cell tryptase” (Aventis Pharmaceuticals Inc., priority 2004, dated 2009).
Structures can show the parent of a compound that is named as a salt.

Legend:
[1] = molecular target: T1, recombinant human β tryptase (Homo sapiens, UniProt Q15661); assay: β-Tryptase inhibitory potency, chromogenic enzyme assay (S2366 substrate); type: biochemical
T1 construct: host or cells: yeast cells
Experimental: Tryptase inhibition activity is confirmed using either isolated human lung tryptase or recombinant human β tryptase expressed in yeast cells. Essentially equivalent results are obtained using isolated native enzyme or the expressed enzyme. The assay procedure employs a 96 well microplate (Costar 3590) using L-pyroglutamyl-L-prolyl-L-arginine-para-nitroanilide (S2366: Quadratech) as substrate (essentially as described by McEuen et. al. Biochem Pharm, 1996, 52, pages 331-340). Assays are performed at room temperature using 0.5mM substrate (2×Km) and the microplate is read on a microplate reader (Beckman Biomek Plate reader) at 405 nm wavelength.
Materials and Methods for Tryptase Primary Screen (Chromogenic assay)
• S2366 (Stock solutions of 2.5 mM).
• Purified recombinant beta Tryptase Stocks of 310 μg/mL. Protocol (Single Point Determination) • Add 60 μL of diluted substrate (final concentration of 500 μM in assay buffer) to each well • Add compound in duplicates, final concentration of 20 μM, volume 20 μL • Add enzyme at a final concentration of 50 ng/mL in a volume of 20 μL • Total volume for each well is 100 μL • Agitate briefly to mix and incubate at room temp in the dark for 30 minutes • Read absorbencies at […]

[2] = tested on: Airway Hyperresponsiveness (AHR) to histamine in sensitized guinea pigs; assay: Guinea pig model of airway hyperreactivity (AHR to histamine after ovalbumin sensitization and challenge); type: in vivo
Experimental: Sensitization and drug treatment: Male Hartley guinea pigs (225-250 g) are sensitized with ovalbumin (0.5 mL of 1% solution, i.p. and s.c.). On day 4, animals received a booster injection (i.p.) of 0.5 mL of 1% ovalbumin. On day 21, animals are orally dosed (2mL/kg) with either vehicle (0.5% methylcellulose/0.2% Tween 80) or test compound 2 hours prior to antigen challenge. Thirty minutes before antigen challenge the animals are also injected with mepyramine (30 mg/kg, i.p.) to prevent anaphylactic collapse. Animals are then exposed for 5 minutes to an aerosol of either saline (control animals) or 1% ovalbumin using a deVilbiss Ultraneb nebulizer.
AHR measurement: Eighteen to twenty four hours after challenge, animals are anesthetized with a combination of ketamine (133 mg/kg) and xylazine (24 mg/kg) given intramuscularly, surgically prepared and then mounted in a whole body plethysmograph for lung function measurement. Animals are connected to Ugo-Basile ventilators delivering a tidal volume of 1 mL/100 g at a rate of 50 breaths/minute via a tracheal cannula. The jugular vein is also cannulated for histamine challenge. A water filled esophageal cannula is placed such that transpulmonary pressure is recordable. Transpulmonary pressure is measured as the difference between the tracheal and esophageal cannulas using a differential pressure transducer. The volume, airflow, and transpulmonary pressure signals are monitored using a pulmonary analysis system (Buxco XA software) and used to calculate pulmonary resistance (cm H2O/mL/s) and dynamic compliance (mL/cm H2O). Airway resistance and dynamic compliance are computed on a breath by breath basis. Histamine is administered intravenously and reactivity to increasing concentrations (0.3-20 μg/kg) assessed. ED50's are estimated from the area under the curve (AUC) values derived from the individual histamine dose-response curves.

[3] = Plasma, lung and BAL drug levels in guinea pigs; type: in vivo, guinea pig
Experimental: Plasma and Lung Drug Levels Plasma and lung compound levels are determined in satellite groups. Three to four guinea pigs from each of the experimental-drug treatment groups are used for the determination of drug levels. At the indicated time point, (either 2- or 24 hours after dosing), animals are euthanized, and 1 mL blood samples are obtained by cardiac puncture and collected into heparin-coated syringes containing 20 μL (per 1 mL of blood) of a 5 mM hydralazine solution. Plasma is separated from the cellular component of the blood by centrifugation, and stored at −20° C. until assayed. Lung samples are dissected free of connective tissues, blotted dry, weighed and stored in 20 mL vials containing 5 mL of a 5 mM hydralazine solution in saline. The frozen plasma samples are then transferred on dry ice to the Pilot PK group for compound levels determination.

[4] = oral route, sensitized guinea pigs
[5] = 2 hours after dosing, 1 mg/kg, p.o.

T1 sequence (Q15661 31-275): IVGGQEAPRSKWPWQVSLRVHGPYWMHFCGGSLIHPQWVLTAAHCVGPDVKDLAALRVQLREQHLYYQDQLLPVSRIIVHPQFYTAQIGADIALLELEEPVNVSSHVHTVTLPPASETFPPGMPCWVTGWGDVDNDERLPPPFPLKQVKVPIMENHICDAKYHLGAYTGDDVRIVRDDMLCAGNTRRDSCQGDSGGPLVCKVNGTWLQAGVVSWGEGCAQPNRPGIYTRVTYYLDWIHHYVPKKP

CCCOc1sc(C(=O)N2CCC(c3cc(CN)ccc3F)CC2)c(C)c1Br [Compound I, [4-(5-aminomethyl-2-fluoro-phenyl)-piperidin-1-yl]-(4-bromo-3-methyl-5-propoxy-thiophen-2-yl)-methanone hydrochloride]
IC50 ([1]; 0.5 mM substrate S2366 (2×Km), room temperature): 76 nM | Ki ([1]; calculated from IC50: Ki=IC50/(1+[Substrate]/Km)): 15 nM | ED50 ([2]; Cavia porcellus, dosed 24 hours prior to antigen challenge, read-out: average ED50, duration of action): 0.4 mg/kg | ED50, protection against antigen-stimulated AHR to histamine, as measured by airway resistance and dynamic lung compliance ([2]; oral dosing 2 hours prior to ovalbumin challenge): 0.1 mg/kg | effect on basal airway resistance [2, 4]: no effect | effect on basal dynamic lung compliance [2, 4]: no effect | compound level in lung [3, 5]: appreciable amount | compound level in plasma [3, 5]: detected at a much lower level | compound level in bronchoalveolar lavage fluid (BAL) ([3]; 2 hours after dosing, 1 mg/kg, p.o., not taking into account dilution factor for BAL): appreciable amount | compound level in lung ([3]; 24 hours after dosing): dose-dependent appreciable amount | compound level in plasma ([3]; 24 hours after dosing): no plasma could be detected
